Assay results reported in patent US11014941B2, “Pyrrolopyrimidine derivatives useful as inhibitors of influenza virus replication” (priority 2017, dated 2021).

What follows are molecules tested against Influenza PB2 (Influenza A virus, UniProt P03428) (assay: biochemical). Settings: read-out: Influenza PB2 affinity, IC50.
Format: binding

Chain of Influenza PB2 (P03428 whole entry, looked up): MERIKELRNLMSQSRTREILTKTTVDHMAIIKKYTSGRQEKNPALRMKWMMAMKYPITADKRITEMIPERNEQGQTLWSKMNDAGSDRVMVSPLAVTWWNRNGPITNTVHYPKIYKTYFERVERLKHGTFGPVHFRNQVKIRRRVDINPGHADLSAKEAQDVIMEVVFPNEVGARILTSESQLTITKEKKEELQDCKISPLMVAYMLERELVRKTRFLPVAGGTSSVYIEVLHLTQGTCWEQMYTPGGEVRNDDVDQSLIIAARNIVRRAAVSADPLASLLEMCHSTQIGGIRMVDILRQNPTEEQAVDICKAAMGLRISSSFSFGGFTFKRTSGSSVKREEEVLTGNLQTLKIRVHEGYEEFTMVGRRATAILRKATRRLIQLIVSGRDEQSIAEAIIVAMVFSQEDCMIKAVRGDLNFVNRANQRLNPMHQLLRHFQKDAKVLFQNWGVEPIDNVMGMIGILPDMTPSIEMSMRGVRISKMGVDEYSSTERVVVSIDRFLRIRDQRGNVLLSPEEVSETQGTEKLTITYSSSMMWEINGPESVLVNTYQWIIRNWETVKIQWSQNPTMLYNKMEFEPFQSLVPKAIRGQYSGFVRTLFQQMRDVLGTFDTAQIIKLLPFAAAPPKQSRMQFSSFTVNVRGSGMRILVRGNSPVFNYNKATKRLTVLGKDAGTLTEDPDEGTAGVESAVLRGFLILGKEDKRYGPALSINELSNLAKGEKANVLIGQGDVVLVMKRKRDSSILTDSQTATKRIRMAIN

`O=C(O)[C@@H]1C2CCC(CC2)C1n1cc(-c2ccncc2)c2cnc(-c3c[nH]c4ncc(Cl)cc34)nc21` (some centres unmarked) [Compound B187] was tested. Which IC50 did it give?
Its IC50 is 1 to 10 µM.

`CNC(=O)[C@@H]1C2CCC(CC2)[C@H]1n1cc(F)c2cnc(-c3c[nH]c4ncc(Cl)cc34)nc21` [Compound B188] was tested. Which IC50 did it give?
Its IC50 is 1 to 10 µM.

How did the IC50 turn out when `N#Cc1cn([C@@H]2C3CCC(CC3)[C@H]2C(=O)O)c2nc(-c3c[nH]c4ncc(Cl)cc34)ncc12` [Compound B191] was run?
Its IC50 is under 1 µM.

With `CSCCCCc1cn([C@@H]2C3CCC(CC3)[C@H]2C(=O)O)c2nc(-c3c[nH]c4ncc(F)cc34)ncc12` [Compound B192] as the molecule, how does the IC50 read?
The IC50 was under 1 µM.

`N#CCCCCc1cn([C@@H]2C3CCC(CC3)[C@H]2C(=O)O)c2nc(-c3c[nH]c4ncc(F)cc34)ncc12` [Compound B193] was tested. Which IC50 did it give?
The IC50 was under 1 µM.

`O=C(O)c1cn([C@H]2C3CCC(CC3)[C@@H]2C(=O)O)c2nc(-c3c[nH]c4ncc(Cl)cc34)ncc12` [Compound B196] was tested. Which IC50 did it give?
The IC50 was 1 to 10 µM.

`CNC(=O)c1cn([C@H]2C3CCC(CC3)[C@@H]2C(=O)O)c2nc(-c3c[nH]c4ncc(Cl)cc34)ncc12` [Compound B197] was tested. Which IC50 did it give?
The IC50 was under 1 µM.

How did the IC50 turn out when `O=C(O)[C@@H]1C2CCC(CC2)[C@H]1n1ccc2ccc(-c3c[nH]c4ncc(F)cc34)cc21` [Compound B198] was run?
The IC50 was 10 to 100 µM.

`CCOC(=O)[C@@H]1C2CCC(CC2)[C@H]1n1ccc2ccc(-c3c[nH]c4ncc(F)cc34)nc21` [Compound B199] was tested. Which IC50 did it give?
Its IC50 is 10 to 100 µM.

For `COC(=O)[C@@H]1C2CCC(CC2)[C@H]1n1ccc2ccc(-c3c[nH]c4ncc(Cl)cc34)cc21` [Compound B200], which IC50 is on record?
The IC50 was 10 to 100 µM.

For `CCOC(=O)[C@@H]1C2CCC(CC2)[C@H]1n1cc(CCCCSC)c2cnc(-c3c[nH]c4ncc(F)cc34)nc21` [Compound B201], which IC50 is on record?
The IC50 was over 100 µM.

For `CCOC(=O)[C@@H]1C2CCC(CC2)[C@H]1n1cc(CCCCC#N)c2cnc(-c3c[nH]c4ncc(F)cc34)nc21` [Compound B202], which IC50 is on record?
The IC50 was over 100 µM.

With `CCOC(=O)[C@@H]1C2CCC(CC2)[C@H]1n1cc(C#CCCC#N)c2cnc(-c3c[nH]c4ncc(F)cc34)nc21` [Compound B203] as the molecule, how does the IC50 read?
Its IC50 is 10 to 100 µM.

With `CN(C)C(=O)c1cn([C@@H]2C3CCC(CC3)[C@H]2C(=O)O)c2nc(-c3c[nH]c4ncc(Cl)cc34)ncc12` [Compound B204] as the molecule, how does the IC50 read?
The IC50 was under 1 µM.

How did the IC50 turn out when `O=C(O)[C@@H]1C2CCC(CC2)[C@H]1n1ccc2ccc(-c3c[nH]c4ncc(F)cc34)nc21` [Compound B205] was run?
Its IC50 is 1 to 10 µM.

Which IC50 does the source give for `O=C(O)[C@@H]1C2CCC(CC2)[C@H]1n1ccc2ccc(-c3c[nH]c4ncc(Cl)cc34)cc21` [Compound B206] here?
The IC50 was 1 to 10 µM.

How did the IC50 turn out when `CCOC(=O)c1cn([C@@H]2C3CCC(CC3)[C@H]2C(=O)O)c2nc(-c3c[nH]c4ncc(Cl)cc34)ncc12` [Compound B207] was run?
The IC50 was under 1 µM.

How did the IC50 turn out when `O=C(O)[C@@H]1C2CCC(CC2)[C@H]1n1ccc2cnc(-c3c[nH]c4ncc(F)cc34)cc21` [Compound B208] was run?
Its IC50 is 1 to 10 µM.

How did the IC50 turn out when `O=CC1=C(n2cc(F)c3cnc(-c4c[nH]c5ncc(Cl)cc45)nc32)C2CCC1CC2` [Compound B209] was run?
The IC50 was 1 to 10 µM.

With `C=Cc1cnc2[nH]cc(-c3ncc4c(F)cn([C@@H]5C6CCC(CC6)[C@H]5C(=O)O)c4n3)c2c1` [Compound B210] as the molecule, how does the IC50 read?
The IC50 was 1 to 10 µM.

For `O=C(O)C1=C(n2cc(F)c3cnc(-c4c[nH]c5ncc(Cl)cc45)nc32)C2CCC1CC2` [Compound B213], which IC50 is on record?
Its IC50 is under 1 µM.

With `N#Cc1cnc2[nH]cc(-c3ncc4c(F)cn([C@@H]5C6CCC(CC6)[C@H]5C(=O)O)c4n3)c2c1` [Compound B214] as the molecule, how does the IC50 read?
The IC50 was 1 to 10 µM.

With `CCOC(=O)[C@@H]1C2CCC(CC2)[C@H]1n1cc(F)c2cnc(-c3c[nH]c4ncc(C#N)cc34)nc21` [Compound B215] as the molecule, how does the IC50 read?
The IC50 was over 100 µM.

Which IC50 does the source give for `O=C(O)[C@@H]1C2CCC(CC2)[C@H]1n1cc(F)c2cnc(-c3c[nH]c4ncc(C(F)(F)F)cc34)nc21` [Compound B216] here?
Its IC50 is 1 to 10 µM.

With `CCOC(=O)[C@@H]1C2CCC(CC2)[C@H]1n1cc(F)c2cnc(-c3c[nH]c4ncc(C(F)(F)F)cc34)nc21` [Compound B217] as the molecule, how does the IC50 read?
The IC50 was over 100 µM.

Which IC50 does the source give for `N#Cc1cnc2[nH]cc(-c3ncc4c(Cl)cn([C@@H]5C6CCC(CC6)[C@H]5C(=O)O)c4n3)c2c1` [Compound B218] here?
The IC50 was over 100 µM.

For `CCOC(=O)[C@@H]1C2CCC(CC2)[C@H]1n1cc(Cl)c2cnc(-c3c[nH]c4ncc(C#N)cc34)nc21` [Compound B219], which IC50 is on record?
The IC50 was over 100 µM.

`N#Cc1cnccc1-c1cn([C@@H]2C3CCC(CC3)[C@H]2C(=O)O)c2nc(-c3c[nH]c4ncc(Cl)cc34)ncc12` [Compound B220] was tested. Which IC50 did it give?
Its IC50 is 10 to 100 µM.

How did the IC50 turn out when `CNC(=O)C1=C(n2cc(F)c3cnc(-c4c[nH]c5ncc(Cl)cc45)nc32)C2CCC1CC2` [Compound B221] was run?
Its IC50 is 1 to 10 µM.

`O=C(O)C1=C(n2cc(F)c3cnc(-c4c[nH]c5ncc(F)cc45)nc32)C2CCC1CC2` [Compound B222] was tested. Which IC50 did it give?
The IC50 was under 1 µM.

`CN(C)C(=O)Cn1cc(-c2c[nH]c3ncc(F)cc23)c2cncnc21` [Compound C1] was tested. Which IC50 did it give?
The IC50 was 10 to 100 µM.

For `CN(C)C(=O)CCn1cc(-c2c[nH]c3ncc(F)cc23)c2cncnc21` [Compound C2], which IC50 is on record?
Its IC50 is over 100 µM.

How did the IC50 turn out when `COC(=O)CCn1cc(-c2c[nH]c3ncc(F)cc23)c2cncnc21` [Compound C3] was run?
The IC50 was over 100 µM.

`O=C(O)Cn1cc(-c2c[nH]c3ncc(F)cc23)c2cncnc21` [Compound C4] was tested. Which IC50 did it give?
Its IC50 is over 100 µM.

With `O=C(O)CCn1cc(-c2c[nH]c3ncc(F)cc23)c2cncnc21` [Compound C5] as the molecule, how does the IC50 read?
The IC50 was over 100 µM.

With `CC(Cn1cc(-c2c[nH]c3ncc(F)cc23)c2cncnc21)C(=O)N(C)C` (centres unmarked) [Compound C6] as the molecule, how does the IC50 read?
Its IC50 is 10 to 100 µM.

How did the IC50 turn out when `CC(Cn1cc(-c2c[nH]c3ncc(F)cc23)c2cncnc21)C(=O)O` (centres unmarked) [Compound C7] was run?
Its IC50 is 10 to 100 µM.

For `CC(CC(=O)O)n1cc(-c2c[nH]c3ncc(F)cc23)c2cncnc21` (centres unmarked) [Compound C8], which IC50 is on record?
The IC50 was 10 to 100 µM.

For `CNC(=O)Cn1cc(-c2c[nH]c3ncc(F)cc23)c2cncnc21` [Compound C9], which IC50 is on record?
The IC50 was 10 to 100 µM.

With `CC(C(=O)O)n1cc(-c2c[nH]c3ncc(F)cc23)c2cncnc21` (centres unmarked) [Compound C10] as the molecule, how does the IC50 read?
Its IC50 is over 100 µM.

For `CNC(=O)CCn1cc(-c2c[nH]c3ncc(F)cc23)c2cncnc21` [Compound C11], which IC50 is on record?
The IC50 was over 100 µM.

With `CC(=O)NCCn1cc(-c2c[nH]c3ncc(F)cc23)c2cncnc21` [Compound C12] as the molecule, how does the IC50 read?
The IC50 was over 100 µM.

With `CC(C)(C)OC(=O)NCCn1cc(-c2c[nH]c3ncc(F)cc23)c2cncnc21` [Compound C13] as the molecule, how does the IC50 read?
Its IC50 is over 100 µM.

`CNC(=O)NCCn1cc(-c2c[nH]c3ncc(F)cc23)c2cncnc21` [Compound C14] was tested. Which IC50 did it give?
The IC50 was over 100 µM.

For `COC(=O)NCCn1cc(-c2c[nH]c3ncc(F)cc23)c2cncnc21` [Compound C15], which IC50 is on record?
The IC50 was over 100 µM.

Which IC50 does the source give for `CN(C)C(=O)NCCn1cc(-c2c[nH]c3ncc(F)cc23)c2cncnc21` [Compound C16] here?
Its IC50 is over 100 µM.

For `CCOC(=O)C(C)Cn1cc(-c2c[nH]c3ncc(F)cc23)c2cncnc21` (centres unmarked) [Compound C17], which IC50 is on record?
Its IC50 is over 100 µM.
